Patent US20180081270A1, “RADIATION-SENSITIVE COMPOSITION, AMORPHOUS FILM, AND METHOD FOR FORMING RESIST PATTERN” (Mitsubishi Gas Chemical Company, Inc., priority 2015, published 2018)

Tests used:
[1] = 10% thermal reduction temperature by thermogravimetry (TG); format: physicochemical; settings: 10° C./min to 500° C., nitrogen gas stream
Protocol: “EXSTAR 6000 DSC apparatus” manufactured by SII NanoTechnology Inc. was used. About 5 mg of a sample was placed in an unsealed container made of aluminum, and the temperature was raised to 500° C. at a temperature increase rate of 10° C./min in a nitrogen gas (30 mL/min) stream. In this operation, 10% thermal reduction temperature was measured.

[2] = Solubility in PGME and PGMEA at 23° C.; format: physicochemical; settings: for solubility in PGME and PGMEA (dissolution amount): 1-methoxy-2-propanol (PGME) and propylene glycol monomethyl ether acetate (PGMEA)
Protocol: The dissolution amount of the compound in 1-methoxy-2-propanol (PGME) and propylene glycol monomethyl ether acetate (PGMEA) was measured at 23° C., and the results were evaluated according to the following criteria.
Evaluation A: 20% by mass or more Evaluation B: 10% by mass or more and less than 20% by mass Evaluation C: less than 10% by mass

Oc1ccc(-c2ccc(O)c(C(c3ccc(I)cc3)c3cc(-c4ccc(O)cc4)ccc3O)c2)cc1 [BiF-I-1]
10% thermal reduction temperature [1]: ≥ 400 °C
solubility in PGME and PGMEA (dissolution amount) [2]: ≥ 30 % by mass
solubility in PGME and PGMEA (evaluation) [2]: A (Evaluation A: 20% by mass or more)

COc1cc(C(c2cc(-c3ccc(O)cc3)ccc2O)c2cc(-c3ccc(O)cc3)ccc2O)cc(O)c1I [BiF-I-2]
10% thermal reduction temperature [1]: ≥ 400 °C
solubility in PGME and PGMEA (dissolution amount) [2]: ≥ 30 % by mass
solubility in PGME and PGMEA (evaluation) [2]: A (Evaluation A: 20% by mass or more)

Oc1ccc(-c2ccc(O)c(C(c3cccc(I)c3)c3cc(-c4ccc(O)cc4)ccc3O)c2)cc1 [BiF-I-3]
10% thermal reduction temperature [1]: ≥ 300 °C
solubility in PGME and PGMEA (dissolution amount) [2]: ≥ 30 % by mass
solubility in PGME and PGMEA (evaluation) [2]: A (Evaluation A: 20% by mass or more)
